In patent US4277479A, “Tetrazolylalkoxycarbostyril derivatives and pharmaceutical compositions containing them” (Otsuka Pharmaceutical Co., Ltd., priority 1978, dated 1981):

Experiments:
[1] = system: rabbit platelet (ADP-induced aggregation); test: Platelet aggregation inhibitory effect, ADP-induced aggregation in rabbit platelet; type: cell-based; settings: Oryctolagus cuniculus; for inhibition at 100 µM: concentration of the test compound solution 10^-4 mole; for inhibition at 100 µM / inhibition at 10 µM: read-out: Inhibition effect on ADP-induced aggregation in rabbit platelet; for inhibition at 10 µM: concentration of the test compound solution 10^-5 mole; for inhibition at 1 µM: concentration of the test compound solution 10^-6 mole
Text: (§1) The blood sample used for the test is a 1/9 (by volume) mixture of sodium citrate and whole blood collected from rabbit. Said sample is subjected to 10-minute centrifugal separation at 1,000 r.p.m. to obtain a platelet rich plasma (PRP). The thus obtained PRP is separated, and the remaining blood sample is further subjected to 15-minute centrifugal separation at 3,000 r.p.m. to obtain a platelet poor plasma (PPP).
(§2) The number of platelets in the PRP is counted by the Brecher-Clonkite Method, and the PRP is diluted with the PPP to prepare a PRP sample with platelet concentration of 300,000/mm^3 for the adenosine diphosphate (ADP)-induced aggregation test. There is also prepared a PRP sample with platelet concentration of 450,000/mm^3 for the collagen-induced aggregation test.
(§3) 0.6 Ml of said PRP sample is added into 0.01 ml of a solution of a test compound of a predetermined concentration and the mixture is placed in a 37° C. thermostat for one minute. Then 0.07 ml of an ADP or collagen solution is added to the mixture. Transmittance of this mixture is determined and the change of transmittance is recorded by using the aggregometer at stirrer speed of 1,100 r.p.m. […] ADP is adjusted to a concentration of 7.5×10^-5 M, and the collagen solution is prepared by triturating 100 mg of collagen with 5 ml of said buffer and the supernatant is used as collagen inducer. Adenosine and acetylsalicylic acid are used as controls for the ADP-induced aggregation test and the collagen-induced aggregation test, respectively. The platelet aggregation inhibitory effect is measured in terms of percent inhibition with respect to the aggregation rate of the controls. The aggregation rate is calculated from the following formula: [formula] wherein a: transmittance of PRP
(§4) b: transmittance of PRP containing a test compound and an aggregation inducer
(§5) The compounds tested are as follows.

[2] = Acute toxicity test; settings: mouse, in vivo; male mice, oral administration
Experimental: The test compounds were administered orally to the mice and LD50 (mg/kg) of the compounds was determined.

[3] = system: cerebral blood flow, bastard dog; test: Increasing effect of cerebral blood flow in anesthetized dog; type: in vivo; settings: Canis lupus familiaris, iv; for change in vivo at 0.3 mg/kg: dosage 300 μg/kg
Experimental: (Test of increasing effect of cerebral blood flow)
Thus, a bastard dog (male, 12-20 kg of body weight) was fixed in a prone (position) and was anesthetized with […] of pentobarbital sodium and forced to breathe at a frequency of respiration of 20 times/minute. Then, the skull was bared and the surface bone was removed to expose the venous sinus by using a grinder and the venous blood was taken out from the venas which was cannulizated. The amount of venous blood flow was measured by using an electromagnetic blood flow meter and next measured by using drop-counter to measure the number of drops of blood per 10 seconds.
The increasing effect of cerebral blood flow was calculated by comparing the number of blood drops in 30 seconds at the peak of increasement shown before and after the administration of compound to be tested. Each of the compounds to be tested was dissolved in dimethylformamide and diluted with physiological saline solution and administered through a cannule being inserted into the profunda femoris vein.

[4] = system: rabbit platelet (collagen-induced aggregation); test: Platelet aggregation inhibitory effect, collagen-induced aggregation in rabbit platelet; type: cell-based; settings: Oryctolagus cuniculus, read-out: Inhibition effect on collagen-induced aggregation in rabbit platelet; for inhibition at 100 µM: concentration of the test compound solution 10^-4 mole; for inhibition at 10 µM: concentration of the test compound solution 10^-5 mole; for inhibition at 1 µM: concentration of the test compound solution 10^-6 mole
Text: as §1, §2, §3, §4, §5

[5] = system: thrombosis; settings: administered orally or intravenously to mammals including humans; Japanese Patent Kokai No. 125,930/73; cited from earlier work
[6] = system: blood platelets; settings: at low concentration; Japanese Patent Kokai No. 125,930/73; cited from earlier work
[7] = through profunda femoris vein, dog

| SMILES | inhibition at 100 µM [1] [%] | inhibition at 10 µM [1] [%] | inhibition at 1 µM [1] [%] | LD50 [2] [mg/kg] | change in vivo at 0.3 mg/kg [3, 7] [%] | inhibition at 100 µM [4] [%] | inhibition at 10 µM [4] [%] | inhibition at 1 µM [4] [%] | change in vivo at 0.03 mg/kg ([3]; dosage 30 μg/kg, through profunda femoris vein, dog) [%] | effectiveness for preventing and treating thrombosis [5] | inhibition of the aggregation of blood platelets [6] | change in vivo at 1 mg/kg ([3]; read-out: Increasing effect of cerebral blood flow) [%] |
| --- | --- | --- | --- | --- | --- | --- | --- | --- | --- | --- | --- | --- |
| O=c1ccc2cc(OCCCc3nnnn3Cc3ccccc3)ccc2[nH]1 [Compound 4, 6-[3-(1-Benzyltetrazol-5-yl)propoxy]carbostyril] | 100 | 45.5 | 3.7 | > 1000 | 65.8 | 100 | 72.5 | 10.8 |  |  |  |  |
| O=C1CCc2cc(OCCCc3nnnn3C3CCCCC3)ccc2N1 [Compound 3, 6-[3-(1-Cyclohexyltetrazol-5-yl)propoxy]-3,4-dihydrocarbostyril] | 76.7 | 59.6 | 9.6 | > 1000 |  | 100 | 53.5 | 10.3 | 69 |  |  |  |
| Cc1cc(=O)[nH]c2ccc(OCCCc3nnnn3C3CCCCC3)cc12 [Compound 10, 4-Methyl-6-[3-(1-cyclohexyltetrazol-5-yl)propoxy]carbostyril] | 100 | 61.7 | 28.1 | > 1000 |  | 100 | 100 | 18.2 |  |  |  |  |
| O=C1CCc2c(cccc2OCCCc2nnnn2C2CCCCC2)N1 [Compound 11, 5-[3-(1-Cyclohexyltetrazol-5-yl)propoxy]-3,4-dihydrocarbostyril] | 90.4 | 30.2 |  | > 1000 |  | 98.4 | 42.4 |  |  |  |  |  |
| C=CCn1c(=O)ccc2cc(OCCCc3nnnn3C3CCCCC3)ccc21 [Compound 13, 1-Allyl-6-[3-(1-cyclohexyltetrazol-5-yl)propoxy]carbostyril] | 81.6 | 41.7 |  | > 1000 |  | 89.7 | 44.8 | 23.2 |  |  |  |  |
| CC(C)(C)NCC(O)COc1cccc2c1CCC(=O)N2 (stereo not shown) [5-(2'-hydroxy-3-tert-butylamino)-propoxy-3,4-dihydrocarbostyril] |  |  |  |  |  |  |  |  |  | very effective for preventing and treating thrombosis | could specifically inhibit the aggregation of blood platelets |  |
| CCc1ccc(-n2nnnc2COc2ccc3c(c2)CCC(=O)N3)cc1 [Compound 15, 6-[1-(4-Ethylphenyl)tetrazol-5-yl-methoxy]3,4-dihydrocarbostyril] | 78.5 | 38.9 |  | > 1000 |  | 100 | 35.1 |  |  |  |  |  |
| COc1cc(C(=O)N2C(=O)CCc3cc(OCCCc4nnnn4C4CCCCC4)ccc32)cc(OC)c1OC [Compound 16, 1-(3,4,5-Trimethoxybenzoyl)-6-[3-(1-cyclohexyltetrazol-5-yl)propoxy]-3,4-dihydrocarbostyril] | 75.6 | 48.4 |  | > 1000 |  | 91.3 | 45.3 |  |  |  |  |  |
| COc1ccc(Cc2nccc3cc(OC)c(OC)cc23)cc1OC [Papaverine, papaverine, reference compound] |  |  |  |  |  |  |  |  |  |  |  | 78.9 |
| O=c1ccc2cc(OCCCc3nnnn3-c3ccccc3)ccc2[nH]1 [Compound 9, 6-[3-(1-Phenyltetrazol-5-yl)propoxy]carbostyril] | 100 | 45.1 | 26.8 | > 1000 | 69.9 | 100 | 100 | 32.8 |  |  |  |  |
